± gives the expanded uncertainty stated by the source.
Test: activity coefficient (dimensionless); of the first substance listed, at infinite dilution; xn = mol fraction of the nth substance listed
Conditions: 101 kPa, Liquid, Chromatography, x1 = 0

SMILES | activity coefficient (318.15 K) | activity coefficient (328.15 K) | activity coefficient (338.15 K) | activity coefficient (348.15 K) | activity coefficient (358.15 K) | activity coefficient (368.15 K)
C=CCCCC [hex-1-ene] + COCC[N+]1(C)CCCCC1.O=S(=O)([N-]S(=O)(=O)C(F)(F)F)C(F)(F)F | 8.78 ± 0.6 | 8.38 ± 0.57 | 8.05 ± 0.55 | 7.69 ± 0.52 | 7.45 ± 0.51 | 7.22 ± 0.49
CCC(=O)CC [pentan-3-one] + COCC[N+]1(C)CCCCC1.O=S(=O)([N-]S(=O)(=O)C(F)(F)F)C(F)(F)F | 0.785 ± 0.051 | 0.801 ± 0.052 | 0.821 ± 0.053 | 0.838 ± 0.054 | 0.852 ± 0.055 | 0.869 ± 0.056
c1ccsc1 [thiophene] + COCC[N+]1(C)CCCCC1.O=S(=O)([N-]S(=O)(=O)C(F)(F)F)C(F)(F)F | 0.787 ± 0.051 | 0.798 ± 0.052 | 0.808 ± 0.052 | 0.819 ± 0.053 | 0.829 ± 0.053 | 0.839 ± 0.054
CCCCC [pentane] + COCC[N+]1(C)CCCCC1.O=S(=O)([N-]S(=O)(=O)C(F)(F)F)C(F)(F)F | 11.8 ± 0.5 | 11.3 ± 0.5 | 10.8 ± 0.5 | 10.3 ± 0.5 | 9.86 ± 0.45 | 9.48 ± 0.44
CCCC=O [butanal] + COCC[N+]1(C)CCCCC1.O=S(=O)([N-]S(=O)(=O)C(F)(F)F)C(F)(F)F | 0.779 ± 0.051 | 0.791 ± 0.051 | 0.805 ± 0.052 | 0.817 ± 0.053 | 0.828 ± 0.053 | 0.84 ± 0.054
CCCCCCCCCC [decane] + COCC[N+]1(C)CCCCC1.O=S(=O)([N-]S(=O)(=O)C(F)(F)F)C(F)(F)F | 73.9 ± 3.5 | 66.5 ± 3.1 | 59.5 ± 2.8 | 53.7 ± 2.5 | 48.8 ± 2.3 | 45 ± 2.1
Cc1ccccc1 [toluene] + COCC[N+]1(C)CCCCC1.O=S(=O)([N-]S(=O)(=O)C(F)(F)F)C(F)(F)F | 1.29 ± 0.08 | 1.3 ± 0.08 | 1.32 ± 0.09 | 1.33 ± 0.09 | 1.34 ± 0.09 | 1.35 ± 0.09
C1CCCCCC1 [cycloheptane] + COCC[N+]1(C)CCCCC1.O=S(=O)([N-]S(=O)(=O)C(F)(F)F)C(F)(F)F | 13.3 ± 0.6 | 12.5 ± 0.6 | 11.7 ± 0.5 | 10.9 ± 0.5 | 10.2 ± 0.5 | 9.64 ± 0.44
CCO [ethanol] + COCC[N+]1(C)CCCCC1.O=S(=O)([N-]S(=O)(=O)C(F)(F)F)C(F)(F)F | 1.73 ± 0.12 | 1.58 ± 0.1 | 1.45 ± 0.1 | 1.33 ± 0.09 | 1.24 ± 0.08 | 1.16 ± 0.07
C=CCCC [1-pentene] + COCC[N+]1(C)CCCCC1.O=S(=O)([N-]S(=O)(=O)C(F)(F)F)C(F)(F)F | 6.03 ± 0.41 | 5.9 ± 0.4 | 5.73 ± 0.39 | 5.6 ± 0.38 | 5.46 ± 0.37 | 5.36 ± 0.37
C1CCOC1 [tetrahydrofuran] + COCC[N+]1(C)CCCCC1.O=S(=O)([N-]S(=O)(=O)C(F)(F)F)C(F)(F)F | 0.76 ± 0.05 | 0.773 ± 0.051 | 0.787 ± 0.051 | 0.799 ± 0.052 | 0.809 ± 0.052 | 0.821 ± 0.053
CCc1ccccc1 [ethylbenzene] + COCC[N+]1(C)CCCCC1.O=S(=O)([N-]S(=O)(=O)C(F)(F)F)C(F)(F)F | 1.92 ± 0.13 | 1.93 ± 0.13 | 1.93 ± 0.13 | 1.94 ± 0.13 | 1.94 ± 0.13 | 1.95 ± 0.13
Cc1ccccc1C [1,2-dimethylbenzene] + COCC[N+]1(C)CCCCC1.O=S(=O)([N-]S(=O)(=O)C(F)(F)F)C(F)(F)F | 1.66 ± 0.11 | 1.68 ± 0.11 | 1.69 ± 0.11 | 1.71 ± 0.11 | 1.72 ± 0.12 | 1.73 ± 0.12
C#CCCCCCC [1-octyne] + COCC[N+]1(C)CCCCC1.O=S(=O)([N-]S(=O)(=O)C(F)(F)F)C(F)(F)F | 6.02 ± 0.41 | 5.92 ± 0.4 | 5.85 ± 0.4 | 5.77 ± 0.39 | 5.7 ± 0.39 | 5.63 ± 0.38
COC(C)(C)C [2-methoxy-2-methylpropane] + COCC[N+]1(C)CCCCC1.O=S(=O)([N-]S(=O)(=O)C(F)(F)F)C(F)(F)F | 2.56 ± 0.17 | 2.59 ± 0.18 | 2.63 ± 0.18 | 2.66 ± 0.18 | 2.69 ± 0.18 | 2.73 ± 0.19

Reference: the NIST ThermoML archive (doi:10.1016/j.jct.2012.01.019)
